How the values were obtained:
Experiment in all cases: in vitro antibacterial evaluation, MIC by broth dilution
Format in all cases: cell-based
[1] = system: Enterococcus sp.; settings: broth dilution, 18 hours at 35° C.
In short: (§1)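 Read-out: the lowest concentration at which the test strain fails to grow. Serial dilutions (64-0.06 μg/mL) in Muller-Hinton II […], 5×10^5 CFU/mL inoculum, NCCLS M7-A2 procedure.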

[2] = system: Streptococcus sp.; settings: broth dilution, 18 hours at 35° C.
In short: as §1

[3] = system: Staphylococcus sp.; settings: broth dilution, 18 hours at 35° C.; for MIC Staphylococcus aureus (ATCC 29213): strain ATCC 29213; for MIC Staphylococcus aureus (GC 1131): strain GC 1131; for MIC Staphylococcus aureus (GC 4541): strain GC 4541; for MIC Staphylococcus aureus-SMITH (GC 4543): strain GC 4543; for MIC Coagulase Negative Staphylococcus (GC 4547): strain GC 4547; for MIC Coagulase Negative Staphylococcus (GC 4548): strain GC 4548; for MIC Coagulase Negative Staphylococcus (GC 4549): strain GC 4549; for MIC Coagulase Negative Staphylococcus (GC 6257): strain GC 6257
In short: as §1

[4] = system: Escherichia coli; settings: 18 hours at 35° C.
[5] = inoculum 5×10^5 CFU/mL, strain ATCC 29212
[6] = inoculum 5×10^5 CFU/mL, strain GC 2242
[7] = inoculum 5×10^5 CFU/mL, strain GC 2243
[8] = inoculum 5×10^5 CFU/mL, strain GC 4556
[9] = inoculum 5×10^5 CFU/mL, strain GC 4558
[10] = inoculum 5×10^5 CFU/mL, strain GC 6189
[11] = inoculum 5×10^5 CFU/mL, strain ATCC 6301
[12] = inoculum 5×10^5 CFU/mL, strain GC 1894

CC(c1ccccc1)C1NC(=O)CNC(=O)C(CO)NC(=O)C(C(O)C2CNC(=N)N2C2OC(CO)C(O)C(O)C2O)NC(=O)C(C(O)C2CNC(=N)N2)NC(=O)C(Cc2ccc(OC3OC(CO)C(OC4OC5COC6(CCC(C(C)(C)C)CC6)OC5C(O)C4O)C(O)C3O)cc2)NC1=O (stereo not shown) [Example 208]
>64 µg/mL: MIC Escherichia coli (GC 4559) [4]
8 µg/mL: MIC Enterococcus faecalis (ATCC 29212) [1] | MIC Enterococcus faecalis (GC 2242) [1] | MIC Enterococcus faecalis (GC 2691) [1] | MIC Enterococcus faecalis (GC 3059) [1] | MIC Enterococcus faecalis (GC 4552) [1] | MIC Enterococcus faecalis (GC 4553) [1] | MIC Enterococcus faecalis (GC 4554) [1] | MIC Enterococcus faecalis (GC 6189) [1] | MIC Enterococcus faecium (GC 2243) [1] | MIC Enterococcus faecium (GC 4556) [1] | MIC Enterococcus faecium (GC 4557) [1] | MIC Enterococcus faecalis (ATCC 29212) [1, 5] | MIC Enterococcus faecalis (GC 2242) [1, 6] | MIC Enterococcus faecium (GC 2243) [1, 7] | MIC Enterococcus faecalis (GC 2691) ([1]; inoculum 5×10^5 CFU/mL, strain GC 2691) | MIC Enterococcus faecalis (GC 3059) ([1]; inoculum 5×10^5 CFU/mL, strain GC 3059) | MIC Enterococcus faecalis (GC 4552) ([1]; inoculum 5×10^5 CFU/mL, strain GC 4552) | MIC Enterococcus faecalis (GC 4553) ([1]; inoculum 5×10^5 CFU/mL, strain GC 4553) | MIC Enterococcus faecalis (GC 4554) ([1]; inoculum 5×10^5 CFU/mL, strain GC 4554) | MIC Enterococcus faecium (GC 4556) [1, 8] | MIC Enterococcus faecium (GC 4557) ([1]; inoculum 5×10^5 CFU/mL, strain GC 4557) | MIC Enterococcus faecalis (GC 6189) [1, 10] | MIC Staphylococcus aureus (GC 1131) [3] | MIC Staphylococcus aureus (GC 4541) [3] | MIC Staphylococcus aureus (GC 4544) ([3]; strain GC 4544) | MIC Escherichia coli (GC 4560) [4]
4 µg/mL: MIC Enterococcus avium (GC 4558) [1] | MIC Enterococcus avium (GC 4558) [1, 9] | MIC Staphylococcus aureus (ATCC 29213) [3] | MIC Staphylococcus aureus (GC 3051) ([3]; strain GC 3051) | MIC Staphylococcus aureus (GC 3053) ([3]; strain GC 3053) | MIC Staphylococcus aureus (GC 4542) ([3]; strain GC 4542) | MIC Staphylococcus aureus-SMITH (GC 4543) [3] | MIC Staphylococcus aureus (GC 4545) ([3]; strain GC 4545) | MIC Staphylococcus haemolyticus (GC 4546) ([3]; strain GC 4546) | MIC Coagulase Negative Staphylococcus (GC 4547) [3] | MIC Coagulase Negative Staphylococcus (GC 4548) [3] | MIC Coagulase Negative Staphylococcus (GC 4549) [3] | MIC Coagulase Negative Staphylococcus (GC 4551) ([3]; strain GC 4551) | MIC Coagulase Negative Staphylococcus (GC 6257) [3]
0.12 µg/mL: MIC Streptococcus agalactiae (GC 4564) [2] | MIC Streptococcus pyogenes (GC 4563) [2] | MIC Streptococcus pyogenes (GC 4563) ([2]; inoculum 5×10^5 CFU/mL, strain GC 4563) | MIC Streptococcus agalactiae (GC 4564) ([2]; inoculum 5×10^5 CFU/mL, strain GC 4564)
<0.06 µg/mL: MIC Streptococcus pneumoniae (ATCC 6301) [2] | MIC Streptococcus pneumoniae (GC 1894) [2] | MIC Streptococcus pneumoniae (GC 4565) [2] | MIC Streptococcus pneumoniae (ATCC 6301) [2, 11] | MIC Streptococcus pneumoniae (GC 1894) [2, 12] | MIC Streptococcus pneumoniae (GC 4565) ([2]; inoculum 5×10^5 CFU/mL, strain GC 4565)
64 µg/mL: MIC Escherichia coli (ATCC 25922) [4]

CC(c1ccccc1)C1NC(=O)CNC(=O)C(CO)NC(=O)C(C(O)C2CNC(=N)N2C2OC(CO)C(O)C(O)C2O)NC(=O)C(C(O)C2CNC(=N)N2)NC(=O)C(Cc2ccc(OC3OC(CO)C(OC4OC5COC6(CCCCCCCCCCC6)OC5C(O)C4O)C(O)C3O)cc2)NC1=O (stereo not shown) [Example 209]
4 µg/mL: MIC Enterococcus avium (GC 4558) [1] | MIC Enterococcus faecalis (ATCC 29212) [1] | MIC Enterococcus faecalis (GC 2242) [1] | MIC Enterococcus faecium (GC 4556) [1] | MIC Enterococcus faecalis (ATCC 29212) [1, 5] | MIC Enterococcus faecalis (GC 2242) [1, 6] | MIC Enterococcus faecium (GC 4556) [1, 8] | MIC Enterococcus avium (GC 4558) [1, 9] | MIC Staphylococcus aureus (ATCC 29213) [3] | MIC Coagulase Negative Staphylococcus (GC 4547) [3] | MIC Escherichia coli (GC 4560) [4]
2 µg/mL: MIC Staphylococcus aureus (GC 1131) [3] | MIC Staphylococcus aureus (GC 4541) [3] | MIC Coagulase Negative Staphylococcus (GC 6257) [3]
>64 µg/mL: MIC Escherichia coli (GC 4559) [4]
64 µg/mL: MIC Escherichia coli (ATCC 25922) [4]
<0.06 µg/mL: MIC Streptococcus pneumoniae (ATCC 6301) [2] | MIC Streptococcus pneumoniae (GC 1894) [2] | MIC Streptococcus pneumoniae (ATCC 6301) [2, 11] | MIC Streptococcus pneumoniae (GC 1894) [2, 12]
1 µg/mL: MIC Enterococcus faecalis (GC 6189) [1] | MIC Enterococcus faecium (GC 2243) [1] | MIC Enterococcus faecium (GC 2243) [1, 7] | MIC Enterococcus faecalis (GC 6189) [1, 10] | MIC Staphylococcus aureus-SMITH (GC 4543) [3] | MIC Coagulase Negative Staphylococcus (GC 4548) [3] | MIC Coagulase Negative Staphylococcus (GC 4549) [3]

From patent US6914045B2, “Glycopeptide antibiotics” (Wyeth Holdings Corporation, priority 2001, dated 2005)
